These results are taken from patent publication US20260069588A1, “VEPDEGESTRANT FOR USE IN TREATING CANCER” (Arvinas Operation, Inc., priority 2022, published 2026).

The nature of data set [1]: Biopharmaceutics Classification System. It counts as physicochemical. As to conditions: low solubility/low permeability.
Data set [2] can be described thus: 28-day GLP oral toxicity study in dogs. Conditions: dog. The class given is in vivo. The text has this:
There were no mortalities and no Compound A-related clinical observations, changes in BW or food consumption or ophthalmic observations. There were no ARV-471-related ECG abnormalities observed, including no effects on PR-interval, QRS duration, QT or QTc intervals, or heart rate and no arrhythmias or abnormal waveforms.

Data set [3] can be described thus: Plasma protein binding, rat. The class given is in vitro ADME. Conditions: read-out: free fraction.
Another data set concerns the target opioid kappa receptor (Homo sapiens, UniProt P41145). The data set is described as follows: Secondary pharmacodynamics binding, opioid kappa receptor. As to conditions: in vitro.
Another data set has as its target T1, ER (Homo sapiens, UniProt P03372).
T1 sequence (P03372 1-595): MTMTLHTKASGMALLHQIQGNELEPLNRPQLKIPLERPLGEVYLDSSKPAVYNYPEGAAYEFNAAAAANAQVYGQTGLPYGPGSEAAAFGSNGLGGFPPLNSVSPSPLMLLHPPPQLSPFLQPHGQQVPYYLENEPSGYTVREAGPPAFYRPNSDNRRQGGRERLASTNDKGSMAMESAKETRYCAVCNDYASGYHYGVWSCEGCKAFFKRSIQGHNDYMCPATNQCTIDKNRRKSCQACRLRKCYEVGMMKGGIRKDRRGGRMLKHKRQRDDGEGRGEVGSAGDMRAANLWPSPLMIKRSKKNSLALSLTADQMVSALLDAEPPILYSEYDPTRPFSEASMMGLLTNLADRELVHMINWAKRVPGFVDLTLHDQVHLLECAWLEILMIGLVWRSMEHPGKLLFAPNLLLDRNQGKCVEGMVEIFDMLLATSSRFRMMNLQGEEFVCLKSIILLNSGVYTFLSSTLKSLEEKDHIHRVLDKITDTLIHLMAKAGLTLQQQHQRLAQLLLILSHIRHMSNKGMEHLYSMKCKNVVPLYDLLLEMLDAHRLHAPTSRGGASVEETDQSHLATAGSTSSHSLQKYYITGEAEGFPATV
Kind of data set: ER degradation in ER+ cell lines (MCF7). On the set-up: endogenous in cells; host or cells: MCF7 (and a panel of unnamed ER+ cell lines). Conditions: MCF7 cells. The class given is cell-based.

The subject of data set [4] is ER+/HER2− locally advanced or metastatic breast cancer. Kind of data set: FIH Study Part A: clinical activity (CBR, ORR). The class given is in vivo, human. The text has this:
Based on a 6 Jun. 2023 data cut-off, evidence of preliminary clinical activity was observed, as assessed by CBR and ORR, in the monotherapy Part A dose escalation cohort of the FIH Study.
Per protocol, the CBR evaluable analysis set included all treated patients who were enrolled at least 24 weeks prior to the data cut-off of analysis. CBR was defined as a confirmed CR or PR per RECIST v1.1 or SD with a minimum duration of 24 weeks.
Per protocol, the response-evaluable analysis set included all treated patients who had measurable disease at baseline and ORR was based on confirmed responses per RECIST v1.1.

For a further data set, the system named is T47D cells. The data set is described as follows: Live-cell imaging proliferation, T47D. As to conditions: Homo sapiens, 144 h, up to 6 days. It counts as cell-based. The text has this: Full growth of the cells over this time period is shown by extent of cell confluence with dimethyl sulfoxide (DMSO).

Sequence of opioid kappa receptor (P41145 whole entry): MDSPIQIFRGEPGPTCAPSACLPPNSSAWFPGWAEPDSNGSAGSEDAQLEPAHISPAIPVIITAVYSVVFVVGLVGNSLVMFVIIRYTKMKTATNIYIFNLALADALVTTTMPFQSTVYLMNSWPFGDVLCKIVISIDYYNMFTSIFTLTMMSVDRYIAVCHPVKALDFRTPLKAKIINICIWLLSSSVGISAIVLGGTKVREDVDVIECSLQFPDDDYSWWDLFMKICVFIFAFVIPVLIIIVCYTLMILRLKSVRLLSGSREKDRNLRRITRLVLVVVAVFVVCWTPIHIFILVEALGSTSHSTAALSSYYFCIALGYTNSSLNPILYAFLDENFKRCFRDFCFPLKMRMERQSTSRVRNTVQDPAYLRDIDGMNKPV

The term NOAEL denotes the highest dose or exposure tested at which no adverse effect was seen. As a reminder, the GI50 is the concentration at which growth is held to half of that of the control. High values mean less potent growth inhibition, low ones more potent growth inhibition. Consider `O=C1CC[C@H](N2Cc3cc(N4CCN(CC5CCN(c6ccc([C@@H]7c8ccc(O)cc8CC[C@@H]7c7ccccc7)cc6)CC5)CC4)ccc3C2=O)C(=O)N1` [Compound A, (S)-3-(5-(4-((1-(4-((1R,2S)-6-hydroxy-2-phenyl-1,2,3,4-tetrahydronaphthalen-1-yl)phenyl)piperidin-4-yl)methyl)piperazin-1-yl)-1-oxoisoindolin-2-yl)piperidine-2,6-dione], for which the “Biopharmaceutics Classification System class” value in data set [1] is reported as “Class IV”. For the same compound, the ECG evaluations result in data set [2] (28 days, up to 90 mg/kg/day) is given as “did not elicit any changes in ECG evaluations”. The NOAEL at 28 days in data set [2] (in vivo, 28 days oral) is 90 mg/kg/day. Moreover, the fraction unbound at 1 μM in data set [3] was determined as 0.082. For the same compound, the binding entry at opioid kappa receptor was “bound”. For the same compound, the “ER degradation with excess lenalidomide or with carfilzomib” value at ER is on record as “No degradation of ER”. In addition, the “maximum ER degradation” value at ER is listed as above 90%. This compound also gave an ORR in data set [4] (7 of 61 response-evaluable, confirmed PR, 95% CI 4.7%, 22.2%) of 11.5%. Further, the CBR in data set [4] (30 of 83 evaluable patients, 95% CI 25.9%, 47.4%, cut-off 6 Jun 2023) is 36.1%; in data set [4] (Phase 1, ESR1-mutant tumors), 50%; in data set [4] (Phase 1, all patients) it was 40%. In addition, the GI50 in the data set on T47D cells worked out at 1.7 nM.
